Laboratory results taken from ChEMBL document CHEMBL1152405, “Bis-anthracenyl isoxazolyl amides have enhanced anticancer activity” (Bioorg Med Chem Lett, 2009).

Key:
Assay type in all cases: functional, cell-based
[1] = tested on: SNB-19; assay: Antitumor activity against human SNB19 cells after 24 hrs; details: SNB-19, 24 h
[2] = tested on: SNB-19; assay: Antitumor activity against human SNB19 cells after 48 hrs; details: SNB-19, 48 h
[3] = tested on: SNB-19; assay: Antitumor activity against human SNB19 cells after 2 hrs; details: SNB-19, 2 h

Row | IC50 [1] [µM] | IC50 [2] [µM] | IC50 [3] [µM] | SMILES
1 | 6.21 |  |  | Cc1onc(-c2c3ccccc3c(Cl)c3ccccc23)c1C(=O)Nc1cc(C(=O)NCCCN(C)C)n(C)c1
2 | 23.9 | 30.1 | 114 | Cc1onc(-c2c3ccccc3c(Cl)c3ccccc23)c1C(=O)NCCCN(C)CCCNC(=O)c1c(-c2c3ccccc3c(Cl)c3ccccc23)noc1C
